Experiments:
[1] = tested on: 72 kD MMP; assay: Metalloproteinase production in TNF-α stimulated THP-1 cells (zymogram); type: cell-based, human; details: 2.5 µM, TNF-α 18 hours
Description: (§1) Another assay measures an ability of the inventive compounds, as represented by compound no. 50, to inhibit metalloproteinase production in cancer cells. In the assay protocol, THP-1 human leukemia cells (1-2 x 10^6/35 mm dish) were plated in RPMI medium with 0.5% serum. Inventive compound no. 50 was added at 2.5 µM. Following incubation for 1 hour, TNF-α was added and incubated for 18 hours. The supernatants from control and treated plates were collected and protease activity was determined in gelatin gels (zymogram) after electrophoretic protein separation. […] The presence of compound no. […] Compound no. 50, representative of compounds of the invention, is capable of substantially reducing metastatic potential of cancer cells by blocking metalloprotease production.

[2] = tested on: 92 kD matrix metalloprotease (MMP); assay: as above; type: cell-based, human; details: 2.5 µM, TNF-α 18 hours
Description: as §1

[3] = tested on: HUVEC; assay: VEGF-induced HUVEC migration, Matrigel invasion assay system; type: cell-based; details: Homo sapiens, 50 ng/ml VEGF
Excerpt: 58. HUVEC were placed in a Matrigel invasion assay system (Becton Dickinson) and VEGF-induced migration assessed with or without varying concentrations of inventive compound no. 58.

[4] = tested on: ICAM-1; assay: ICAM expression on TNF-stimulated HUVEC (flow cytometry); type: cell-based, human
Description: (§2) Assay results reported in figures 63A and 63B, illustrate that inventive compound no. […] HUVEC were stimulated with TNFα (20 ng/ml) for 5 hours and stained using fluorescent antibodies to ICAM-1 or VCAM-1. Cell surface expression was analyzed by flow cytometry. All values were normalized to the peak mean fluorescence of the positive control (=100%). Average levels of induction using TNFα- stimulation were 20-fold higher for ICAM-1 and over 50-fold higher for VCAM-1 from that of nonstimulated controls, as shown in figures 63 and 63B.
(§3) Figures 73A and 73B illustrate inhibition by inventive compound no. 58 of VCAM or ICAM expression, respectively, in HUVEC activated by TNF. Cells were stimulated for 8 hours in the presence or absence of inventive compounds and stained with fluorescent antibodies to VCAM or ICAM and analyzed by flow cytometry.

[5] = tested on: Swiss/3T3 cells; assay: EGF-induced proliferation in Swiss/3T3 cells; type: cell-based; details: 20 ng/ml EGF
Description: As illustrated in figures 67A and 67B, inventive compound no. 58 inhibited VEGF-induced proliferation in HUVEC and EGF-induced proliferation in Swiss/3T3 cells, respectively. Procedurally, HUVEC were placed in 0.5% serum containing medium prior to stimulation with various concentrations of VEGF, with or without inventive compound no. 58 (5 µM). Twenty four hours later the cells were pulsed with ^3H-TdR and 4 hours later harvested and counted by scintillation. The IC50 for inhibition was approximately 50-100 nM. Swiss 3T3 cells were stimulated with 20 ng/ml EGF and 24 hours later harvested and counted by scintillation.

[6] = tested on: vascular cell adhesion molecule (VCAM); assay: VCAM expression on TNF-stimulated HUVEC (flow cytometry); type: cell-based, human
Excerpt: This example illustrates an investigation of inhibition of vascular cell adhesion molecule (VCAM) expression on HUVEC by compound no. 58. VCAM expression by endothelial cells is an early event in the pathogenesis of atherogenesis and multiple sclerosis, among other various autoimmune diseases. Figure 23 is a series of frequency histograms obtained in this exemplary assay. […] In the absence of TNF, VCAM expression on HUVEC was at a very low level. […] The average increase in cell fluorescence was approximately 10-fold. The bottom panel is a frequency histogram of TNF-stimulated cells in the presence of compound no 58. […] 58.
as §2, §3

[7] = tested on: murine splenocyte proliferation; assay: Splenocyte (B cell) proliferation stimulated by anti-mu/anti-IgM and IL-4; type: cell-based; details: Mus musculus, anti-IgM antibodies (10 µg/ml) and murine IL-4 (12.5 ng/ml)
Description: This example illustrates inhibitive effects of compounds nos. 27 and 28 on murine splenocyte proliferation stimulated by anti-mu ([…]) and interleukin-4 (IL-4, 12.5 ng/ml). This in vitro assay, described above, is indicative of immune-suppressive/autoimmune treatment assay emphasizing humoral or B cell immune response. The inventive compound was added to the cells at the doses indicated two hours prior to activation with anti-mu and IL-4. Both compounds nos. 27 and 28 inhibited splenocyte proliferation in a dose-response manner. IC50 values for compounds nos. Background counts were less than 200 cpm.
In figure 57, results shown illustrate that inventive compound no. 45 inhibits B cell proliferation. Murine splenocytes were stimulated with anti-IgM antibodies (10 µg/ml) and murine IL-4 (12.5 ng/ml). Cells were pulsed with ^3HTdR at 44 hours, harvested 4 hours later, and the incorporation of ^3H-TdR was determined by liquid scintillation.

[8] = tested on: murine thymocyte proliferation; assay: Thymocyte proliferation co-stimulated by ConA and IL-2 (tritiated thymidine); type: cell-based, Balb/C mice; details: for inhibition with delayed addition: 1 µM
[9] = tested on: murine splenocytes; assay: Anti-CD3 priming followed by IL-2 restimulation of splenocytes; type: cell-based; details: 1 µM
Description: 53A. […] The cells were pulsed with ^3H-TdR for 4 hours and harvested and incorporation of ^3H-TdR determined.

CCCCCCCCCCCCNCC(O)CCCCCCCCCn1c(=O)c2c(ncn2C)n(C)c1=O (stereo not drawn) [compound no. 50, 1-(11-Dodecylamino-10-hydroxyundecyl)-3,7-dmethylxanthine]
TNF-α-stimulated expression of 72 kD MMP [1]: blocked the TNF-α-stimulated expression of both the 92 and 72 kD MMPs
TNF-α-stimulated expression of 92 kD MMP [2]: blocked the TNF-α-stimulated expression of both the 92 and 72 kD MMPs

COc1cc(CNCC(O)CCCCCCCCCn2c(=O)c3c(ncn3C)n(C)c2=O)cc(OC)c1OC (stereo not drawn) [compound no. 58, 1-[11-(3,4,5-Trimethoxybenzylamino)-10-hydroxyundecyl]-3,7-dimethylxanthine]
IC50 [3]: 100 to 200 nM
ICAM expression ([4]; TNF, 8 hours): inhibition
IC50 [5]: ~20 nM
factor of reduction of mean fluorescence (VCAM expression) ([6]; TNF 6 hours, versus TNF-stimulated cells without compound): 8
VCAM expression ([6]; TNF, 8 hours): inhibition

CCCCCCCCNCC(O)CCCCCCCCCn1c(=O)c2c(ncn2C)n(C)c1=O (stereo not drawn) [compound no. 45]
IC50 [7]: 1200 nM
inhibition with delayed addition ([8]; added 72 and 92 hours after IL-2): significant inhibition remained even at 72 and 92 hours following addition of IL-2
inhibition with delayed addition ([8]; added 24 hours after IL-2): maximally inhibits thymocyte proliferation even when added 24 hours following the IL-2 stimulation
IC50 ([8]; Mus musculus, Thymocyte, Con A (0.25 µg/ml) and IL-2 (20 ng/ml), 96 hours): ~350 nM
ICAM-1 cell surface expression ([4]; TNFα (20 ng/ml), 5 hours): inhibited adhesion receptor expression on HUVEC
proliferation of anti-CD3 primed splenocytes, compound present with IL-2 [9]: proliferation was inhibited
response to IL-2 after compound present during anti-CD3 incubation [9]: did not block the splenocyte's ability to respond to IL-2
VCAM-1 cell surface expression ([6]; TNFα (20 ng/ml), 5 hours): inhibited adhesion receptor expression on HUVEC

Source: EP0719267B1, “SECOND MESSENGER CELL SIGNALING INHIBITORS” (CELL THERAPEUTICS, INC., priority 1993, dated 1994)
